Consider 44 compounds from ChEMBL document CHEMBL2057151, “Synthesis and structure-activity relationships of pyrido[3,2-b]pyrazin-3(4H)-ones and pteridin-7(8H)-ones as corticotropin-releasing factor-1 receptor antagonists” (Bioorg Med Chem Lett, 2012).

The term IC50 denotes the point on the concentration scale where inhibition reaches its midpoint. Higher therefore signals lower potency. For orientation: fraction unbound means free concentration divided by total concentration. High values mean weak binding, low ones extensive binding. Usually AUC stands for the area under the concentration-time curve, a measure of exposure. A higher AUC goes with more exposure. A word on the half-life: it is the time in which the quantity being followed falls by half. A high value points to slow decline.

Data set [1] has as its target T1, Corticotropin-releasing factor receptor 1 (Rattus norvegicus, UniProt P35353).
T1 sequence (P35353 whole entry): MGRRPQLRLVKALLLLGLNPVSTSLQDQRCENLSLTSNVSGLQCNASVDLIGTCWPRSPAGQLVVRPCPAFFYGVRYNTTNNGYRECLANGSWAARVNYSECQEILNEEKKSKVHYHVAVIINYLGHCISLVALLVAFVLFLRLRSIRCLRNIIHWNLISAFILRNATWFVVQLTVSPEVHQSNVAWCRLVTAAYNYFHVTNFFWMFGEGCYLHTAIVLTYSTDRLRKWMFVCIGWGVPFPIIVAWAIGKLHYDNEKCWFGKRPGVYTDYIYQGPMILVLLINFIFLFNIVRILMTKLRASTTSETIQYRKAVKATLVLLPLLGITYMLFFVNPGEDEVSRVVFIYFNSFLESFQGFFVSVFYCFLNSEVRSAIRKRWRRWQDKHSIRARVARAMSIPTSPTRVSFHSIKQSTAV
As to the kind of experiment: Antagonist activity at rat CFR1R. The format is functional.

Data set [2] is described as follows: Fraction unbound in rat plasma. The format is ADME, cell-free.
The subject of the next data set is Rattus norvegicus. Put plainly: AUC in rat at 1.5 mg/kg, po. The format is ADME, organism-based, Plasma. Details: dose 1.5 mg/kg, route oral. As to conditions: in vivo.
Data set [3] in a line: Clearance in rat at 0.5 mg/kg, iv and 1.5 mg/kg, po. As to conditions: in vivo. The format is ADME, organism-based.
Data set [4] in a line: Volume of distribution at steady state in rat at 0.5 mg/kg, iv and 1.5 mg/kg, po. The format is ADME, organism-based. The note with it: in vivo, read-out: Vdss.
Data set [5] is described as follows: Half life in rat at 0.5 mg/kg, iv. Type of data set: ADME, organism-based. Details: dose 0.5 mg/kg, route intravenous. The note with it: in vivo.

With `CC[C@H](C1CC1)n1c(=O)c(C)nc2c(-c3cc(Cl)c(OC)cc3C)ccnc21`, the IC50 in data set [1] came out at 4.5 nM.
Turning to `CC[C@@H](C1CC1)n1c(=O)c(C)nc2c(-c3ccc(Cl)cc3Cl)ccnc21`, in data set [2], the fraction unbound turned out to be 0.002. In data set [1], it took 7.4 nM to reach half-maximal inhibition (IC50).
`CC[C@H](C1CC1)n1c(=O)c(C)nc2c(-c3ccc(OC)cc3Cl)ccnc21` registered an IC50 in data set [1] of 4.5 nM.
Still for that read-out and setting: the same measure for `CC[C@@H](C1CC1)n1c(=O)c(C)nc2c(-c3ccc(OC(F)F)cc3Cl)ccnc21`: 7.3 nM.
In data set [2], `CC[C@H](COC)n1c(=O)c(C)nc2c(-c3ccc(Cl)cc3Cl)ccnc21` came in with a fraction unbound of 0.004. The compound further showed an IC50 in data set [1] of 4 nM.
As to `CC[C@@H](C1CC1)n1c(=O)c(C)nc2c(-c3ccc(Cl)cc3Cl)nccc21`, in data set [1], half-maximal inhibition (IC50) required 55 nM.
`CCC(C1CC1)n1c(=O)c(C)nc2c(-c3cc(F)c(N(C)C)cc3Cl)ccnc21` (racemic) displayed a fraction unbound in data set [2] of less than 0.002. The compound further returned an IC50 in data set [1] of 0.82 nM.
With `Cc1nc2c(-c3ccc(Cl)cc3Cl)ccnc2n(C(C)C(C)C)c1=O` (stereo not given), in data set [1], the IC50 was 380 nM.
The same measure, in the same setting: the same measure for `CCC(C1CC1)n1c(=O)c(C)nc2c(-c3cc(C)c(C)c(C)c3C)ccnc21` (racemic): 340 nM; for `CC[C@H](C1CC1)n1c(=O)c(C)nc2c(-c3cc(C)c(OC)nc3C)ccnc21`: 15 nM; for `CC[C@@H](C1CC1)n1c(=O)c(C)nc2c(-c3ccc(OC)cc3Cl)ccnc21`: 4 nM.
The compound `COc1ccc(-c2ccnc3c2nc(C)c(=O)n3C(C2CC2)C2CC2)c(C)c1` had a fraction unbound in data set [2] of 0.03. Further, in data set [1], the IC50 was found to be 3 nM.
On to `CC[C@H](C1CC1)n1c(=O)c(C)nc2c(-c3cc(F)c(OC)cc3Cl)ccnc21`, for which the IC50 in data set [1] stood at 1.7 nM.
Still for that read-out and setting: the same measure for `CC[C@H](COC)n1c(=O)c(C)nc2c(-c3ccc(Cl)cc3Cl)nccc21`: 150 nM; for `CCCC(C1CC1)n1c(=O)c(C)nc2c(-c3ccc(Cl)cc3Cl)ccnc21` (stereo not given): 4.3 nM.
Same read-out and setting: the same measure for `CCOc1cc(Cl)c(-c2ccnc3c2nc(C)c(=O)n3C(CC)C2CC2)cc1C` (racemic): 2 nM.
`CCC(C1CC1)n1c(=O)c(C)nc2c(-c3cc(Cl)c(OC(F)F)cc3C)ccnc21` (racemic) showed a fraction unbound in data set [2] of 0.003. In data set [1], the IC50 was determined as 9.7 nM.
For `CCC(C1CC1)n1c(=O)c(C)nc2c(-c3cc(C)c(OC)cc3Cl)ccnc21` (racemic), in that order: less than 0.002 and 0.68 nM.
Take `COCC(C)n1c(=O)c(C)nc2c(-c3ccc(Cl)cc3Cl)ccnc21` (stereo not given): the midpoint of inhibition in data set [1], the IC50, lay at 63 nM.
Turning to `CCC(COC)n1c(=O)c(C)nc2c(-c3cc(F)c(OC)cc3Cl)ccnc21` (stereo not given), the fraction unbound in data set [2] was 0.03. The same compound displayed an IC50 in data set [1] of 2.1 nM.
Take `CCC(C1CC1)n1c(=O)c(C)nc2c(-c3cc(C)c(Cl)cc3OC)ccnc21` (racemic): in data set [1], the IC50 is 1.1 nM.
Turning to `Cc1nc2c(-c3ccc(Cl)cc3Cl)ccnc2n(CC(C)C)c1=O`, half-maximal inhibition in data set [1] (IC50) was put at 3500 nM.
Still for that read-out and setting: the same measure for `CCC(C1CC1)n1c(=O)c(C)nc2c(-c3cc(C)c(OC(C)C)cc3Cl)ccnc21` (racemic): 15 nM.
For `CCC(C1CC1)n1c(=O)c(C)nc2c(-c3cc(Cl)c(OC(F)F)cc3C)ncnc21` (stereo not given), the fraction unbound in data set [2] was 0.004. Also, it took 38 nM to reach half-maximal inhibition in data set [1] (IC50).
For `CCC(C1CC1)n1c(=O)c(C)nc2c(-c3cc(C)c(C)cc3C)ccnc21` (racemic), in data set [1], the IC50 worked out at 5.2 nM.
Same read-out and setting: the figure for `CCC(C1CC1)n1c(=O)c(C)nc2c(-c3cc(Cl)c(OC)cc3OC)ccnc21` (racemic) is 3.4 nM.
Regarding `COc1ccc(-c2ncnc3c2nc(C)c(=O)n3C(C2CC2)C2CC2)c(C)c1`, the fraction unbound in data set [2] was 0.014. It took 37 nM to reach half-maximal inhibition in data set [1] (IC50).
Take `CCC(C1CC1)n1c(=O)c(C)nc2c(-c3ccc(C)cc3C)ccnc21` (racemic): in data set [1], it took 8.8 nM to reach half-maximal inhibition (IC50).
The compound `CCCC(C)n1c(=O)c(C)nc2c(-c3ccc(Cl)cc3Cl)ccnc21` (stereo not given) came in with an IC50 in data set [1] of 62 nM.
The same measure, in the same setting: the figure for `CC[C@H](C1CC1)n1c(=O)c(C)nc2c(-c3cc(F)c(OC)cc3C)ccnc21` is 9.4 nM; for `CC[C@H](C1CC1)n1c(=O)c(C)nc2c(-c3ccc(Cl)cc3Cl)ccnc21` it is 8.2 nM.
Turning to `CC[C@@H](C1CC1)n1c(=O)c(C)nc2c(-c3ccc(Cl)cc3Cl)ncnc21`, in data set [2], the unbound share (fraction unbound) stood at 0.004. For the same compound, half-maximal inhibition in data set [1] (IC50) was put at 24 nM.
Regarding `CC[C@@H](C1CC1)n1c(=O)c(C)nc2c(-c3ccc(C(F)(F)F)cc3Cl)ccnc21`, it took 21 nM to reach half-maximal inhibition in data set [1] (IC50).
As for `CCC(COC)n1c(=O)c(C)nc2c(-c3cc(F)c(OC)cc3Cl)ncnc21` (stereo not given), the fraction unbound in data set [2] was 0.014. The IC50 in data set [1] came to 16 nM.
Turning to `CC[C@H](C1CC1)n1c(=O)c(C)nc2c(-c3ccc(OC)cc3C)ccnc21`, in data set [1], 11 nM corresponded to half-maximal inhibition (IC50).
As for `CCC(C1CC1)n1c(=O)c(C)nc2c(-c3cc(C#N)c(C)cc3Cl)ccnc21` (stereo not given), in data set [1], the IC50 is 4.8 nM.
`COCC(C1CC1)n1c(=O)c(C)nc2c(-c3cc(F)c(OC)cc3Cl)ccnc21` (stereo not given) returned a fraction unbound in data set [2] of less than 0.002. In data set [1], this compound had an IC50 of 1.5 nM.
`CCC(COC)n1c(=O)c(C)nc2c(-c3cc(Cl)c(OC)cc3C)ccnc21` (stereo not given) had an AUC in the data set with Rattus norvegicus of 8.5 µM·h. Besides, the clearance in data set [3] was 9.5 mL/min/kg. The Vd in data set [4] worked out at 1.8 L/kg. In data set [5], the half-life was 5.8 h.
The compound `CC[C@@H](COC)n1c(=O)c(C)nc2c(-c3ccc(Cl)cc3Cl)ccnc21` returned an IC50 in data set [1] of 74 nM.
Still for that read-out and setting: the same measure for `CCC(C1CC1)n1c(=O)c(C)nc2c(-c3cc(F)c(OC)cc3F)ccnc21` (racemic): 52 nM; for `CC[C@H](C1CC1)n1c(=O)c(C)nc2c(-c3cc(C)c(OC)cc3C)ccnc21`: 130 nM.
Compound `CC[C@H](COC)n1c(=O)c(C)nc2c(-c3ccc(Cl)cc3Cl)ncnc21` yielded a fraction unbound in data set [2] of 0.022. The IC50 in data set [1] was determined as 97 nM.
Turning to `COCC(C1CC1)n1c(=O)c(C)nc2c(-c3cc(F)c(OC)cc3Cl)ncnc21` (stereo not given), the AUC in the data set on Rattus norvegicus is 0.3 µM·h. Moreover, in data set [3], the clearance is 33.7 mL/min/kg. Moreover, the fraction unbound in data set [2] was determined as 0.028. In addition, in data set [4], the Vd is 2.05 L/kg. The compound further came in with an IC50 in data set [1] of 7.5 nM. The same compound gave a half-life in data set [5] of 2 h.
In the case of `CC[C@H](C1CC1)n1c(=O)c(C)nc2c(-c3ccc(OC)nc3C)ccnc21`, the IC50 in data set [1] was determined as 76 nM.
